Experimental data from patent US20250204515A1, “Heparanase Inhibition for Graft Protection” (University of Pittsburgh - Of the Commonwealth System of …, priority 2022, published 2025).

Columns and labels:
[1] = tested on: syndecan-1, glycosaminoglycans (GAGs); experiment: Glycocalyx components in lung grafts 2 h after transplantation (western blot, DMMB); format: in vivo, rat; details: vs control; for GAGs remaining in the lung tissue: DMMB assay, 2 h after transplant; for syndecan-1 protein expression in the plasma membrane: western blot, 2 h after transplantation
Procedure: Western blotting. Whole cell lysate was isolated with 2% SDS buffer (2% SDS, 50 mM Tris-HCl pH 6.8, 10% glycerol) supplemented with protease inhibitors (Sigma-Aldrich). Membrane protein fractions were obtained with the Mem-PER Plus Membrane Protein Extraction Kit (Thermo Scientific) following manufacturer's instructions. Proteins were resolved on 10% SDS-PAGE followed by transfer to 0.2 μm nitrocellulose membranes (Bio-Rad Laboratories, Hercules, CA, USA). Membranes were blocked with 5% non-fat milk at room temperature for 2 h and then incubated with the following primary antibodies at 4° C. overnight: anti-syndecan-1 (1:1000; Santa Cruz Biotechnology, Inc., Dallas, Tx, USA), anti-heparanase-1 (1:1000; Boster Biological, Pleasanton, CA, USA), anti-VE-Cadherin (1:1000; Abcam), anti-HSP90 (1:1000; Abcam) and anti-@-actin (1:50,000; Sigma-Aldrich). Membranes were then incubated with either anti-mouse (1:5000) or anti-rabbit (1:3000) horse-radish peroxidase (HRP)-conjugated polyclonal secondary antibody (Abcam, Cambridge, MA, USA), or IRDye 800CW anti-rabbit IgG or 680CW anti-mice secondary antibody (LI-COR Biosciences, Lincoln, NE, USA) at room temperature for 2 h. Proteins were visualized using an enhanced chemiluminescence kit (Abcam), and protein bands were imaged and analyzed using Image Lab software (Version 6.0; Bio-Rad Laboratories, Inc.) or Odyssey 9120 Infrared Imaging System (LI-COR Biosciences).
(§1) Determination of glycocalyx components in rat lung grafts. For rat lung tissue, syndecan-1 released into the perfusate during EVLP was measured with a rat-specific ELISA (Immunotag Rat SDC1 (Syndecan-1) ELISA, G-Biosciences, St. Louis, MO). Glycocalyx glycosaminoglycans (GAGs) were quantitated using the 1,9-dimethylmethylene blue (DMMB, Millipore Sigma) method with modifications. A 1 L solution of DMMB (pH˜3.0) was prepared by dissolving 16 mg DMMB in distilled H2O containing 3.04 g/A glycine, 1.6 g/A NaCl and 95 ml 0.1 M acetic acid. Briefly, 1 ml DMMB solution was added to 20 μl lung tissue lysate then incubated at room temperature for 1 h on a tube rotator. The tubes were then centrifuged at 14,000 rpm for 15 min at 4° C. Supernatants were carefully decanted, 200 μL sodium lauryl sulfate buffer (2.08 mM) was added to each pellet, and the tubes were vortexed until GAG-DMMB pellets were no longer visible. GAG content in each sample was measured spectrophotometrically at 656 nm.

rat lungs = experiment: Ex vivo lung perfusion (EVLP) of donor-pretreated rat lungs; format: in vivo; details: donor pre-treatment; for pulmonary vascular resistance (PVR) during EVLP: 3 h normothermic EVLP; for syndecan-1 concentration in EVLP perfusate: during EVLP, vs increasing levels in control; for Evans blue dye (EBD) penetration into lung parenchyma: last 30 min of EVLP, vs control
Procedure: Ex vivo lung perfusion in rats. EVLP was performed using a commercially available rodent EVLP system (IPL-2 Isolated Perfused Rat or Guinea Pig Lung System; Harvard Apparatus, Holliston, MA). After procurement, the lungs were kept under cold ischemia for 1 h, then placed on the EVLP system, ventilated with air warmed to 37′, and perfused with 100 ml STEEN solution (XVIVO Perfusion AB) that was deoxygenated with 6% O2, 8% CO2 and balanced N2 and supplemented with 50 mg of methylprednisolone (Solu-Medrol; Pfizer, Inc.) and 50 mg of cephalosporin (Cefazolin; West-Ward Pharmaceuticals Corp., Eatontown, NJ). […] Pulmonary artery pressure, peak airway pressure, and airway flow were monitored continuously, and lung compliance and PVR were calculated every hour.
Assessment of endothelial barrier function. After 3 h of EVLP, 6 mg of Evans blue dye (EBD, Millipore Sigma) was administered into the perfusate to assess vascular endothelial permeability. After 30 min of perfusion, the lung vascular bed was rinsed with 20 ml of PBS and pieces of lungs were incubated overnight in formamide (Millipore Sigma) at 60° C. Absorbance of the extractant was measured at 620 nm to quantitate the amount of EBD that had permeabilized into the tissue and was normalized to dry-tissue weight.
as §1

MMP-2 = experiment: Gelatin zymography of EVLP perfusate, donor-pretreated lungs; format: in vivo, rat; details: donor pre-treatment, vs control
Procedure: Gelatin zymography. Gelatin zymography was performed to measure secreted MMP-2 and MMP-9 activity in EVLP perfusate and to measure endogenous MMP-2 and 9 activity in lung tissue before transplantation. Briefly, lung tissue before transplant was homogenized in cold PBS. Perfusate samples (20 μl) or tissue lysates were mixed with 2× non-reducing SDS sample buffer were loaded onto a 10% polyacrylamide gel containing 0.1% SDS and 0.1% gelatin. After electrophoresis to separate the proteins, the gel was washed in renaturing buffer (Novex Invitrogen) at room temperature, and then incubated in developing buffer (Novex Invitrogen) at 37° C. overnight (˜16-18 h). The next day, the gel was stained with Coomassie Brilliant Blue R-250 (Bio-Rad) and imaged (ChemiDoc, Bio-Rad). Enzyme activity, visualized as clear bands against the dark blue background, was quantified using Image-J (NIH).

Row | Substance | GAGs remaining in the lung tissue [1] | syndecan-1 protein expression in the plasma membrane [1] | pulmonary vascular resistance (PVR) during EVLP (rat lungs) | syndecan-1 concentration in EVLP perfusate (rat lungs) | Evans blue dye (EBD) penetration into lung parenchyma (rat lungs) | MMP-2 activity in EVLP perfusate (MMP-2)
1 | N-acetyl heparin [NAH] | significantly more GAGs remained | markedly higher | little to no increase | maintained at a constant level | significantly less EBD penetration | significantly less
2 | heparin | significantly more GAGs remained | markedly higher | little to no increase | maintained at a constant level | significantly less EBD penetration | significantly less
